The record followed here is publication PMC11755336 (Journal of Pharmaceutical Analysis, 2024).

Molecules are shown by their SMILES. Where two headings read alike, the source gives them in different places.

Series [1] deals with AChE (Homo sapiens, UniProt P22303). The series can be described thus: biochemical. Type of series: biochemical.
The target in series [2] is AChE (Electrophorus electricus, UniProt O42275). The series can be described thus: biochemical. It counts as binding.
For series [3], the system named is BV2 cells. The series can be described thus: Aβ phagocytosis assay in BV2 cells. It counts as cell-based, mice. The note with it: versus control group.
Series [4] addresses MAO-A (Homo sapiens, UniProt P21397). The series can be described thus: MAO-A inhibition rate, enhanced Weissbach's method. Type of series: biochemical.
The target of series [5] is recombinant MAO-A from human (Homo sapiens, UniProt P21397). Nature of the series: SPR affinity detection with MAO-A. Type of series: binding.
The conditions of series [6]: rats, oral KXS 10 mL/kg (4 g/mL), 8 days.

Chain of MAO-A (P21397 whole entry): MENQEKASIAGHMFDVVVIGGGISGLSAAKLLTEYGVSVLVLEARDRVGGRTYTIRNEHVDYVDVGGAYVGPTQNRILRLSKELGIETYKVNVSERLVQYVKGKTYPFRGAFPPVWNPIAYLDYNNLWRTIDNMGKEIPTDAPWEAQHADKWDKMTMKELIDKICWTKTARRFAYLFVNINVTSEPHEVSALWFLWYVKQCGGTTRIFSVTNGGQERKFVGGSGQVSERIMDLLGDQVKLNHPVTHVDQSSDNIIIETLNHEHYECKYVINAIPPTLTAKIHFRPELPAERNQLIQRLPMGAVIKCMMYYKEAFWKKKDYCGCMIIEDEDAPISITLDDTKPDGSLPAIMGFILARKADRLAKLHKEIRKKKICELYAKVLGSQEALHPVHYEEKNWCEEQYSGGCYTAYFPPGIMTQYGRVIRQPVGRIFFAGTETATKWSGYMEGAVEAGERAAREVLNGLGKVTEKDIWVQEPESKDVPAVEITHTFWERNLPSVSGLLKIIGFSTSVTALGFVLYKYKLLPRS
Chain of recombinant MAO-A from human (P21397 whole entry): as above
Chain of AChE (Electrophorus electricus, UniProt O42275) (O42275 24-633): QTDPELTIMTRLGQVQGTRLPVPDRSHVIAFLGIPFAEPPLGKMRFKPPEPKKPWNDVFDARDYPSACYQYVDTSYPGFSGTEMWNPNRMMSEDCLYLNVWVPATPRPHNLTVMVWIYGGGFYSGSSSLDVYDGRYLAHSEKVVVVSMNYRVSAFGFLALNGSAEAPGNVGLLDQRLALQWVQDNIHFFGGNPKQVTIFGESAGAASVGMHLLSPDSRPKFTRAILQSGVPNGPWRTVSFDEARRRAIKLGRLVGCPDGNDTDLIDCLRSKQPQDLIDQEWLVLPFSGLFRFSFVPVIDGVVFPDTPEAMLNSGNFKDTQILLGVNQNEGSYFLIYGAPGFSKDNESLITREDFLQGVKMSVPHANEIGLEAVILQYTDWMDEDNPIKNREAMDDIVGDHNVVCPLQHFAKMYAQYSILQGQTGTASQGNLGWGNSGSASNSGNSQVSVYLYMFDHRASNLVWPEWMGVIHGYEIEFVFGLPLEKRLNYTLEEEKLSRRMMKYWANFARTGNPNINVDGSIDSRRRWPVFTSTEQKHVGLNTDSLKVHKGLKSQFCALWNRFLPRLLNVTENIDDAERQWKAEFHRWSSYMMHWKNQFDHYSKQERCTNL

With `CC(C)(C)c1ccc(O)c(C(C)(C)C)c1` [2,4-Di-tert-butylphenol], it took 4.51 ± 0.191 µM to reach half-maximal inhibition in series [1] (IC50). The “AChE inhibitory rate compared with galantamine” value in series [1] (25 μM) is “surpassed that of galantamine”. For the same molecule, binding in series [2] was put at a Kd of 0.133 µM. The “phagocytic ability of BV2 cells towards FITC-Aβ1−42 (fluorescence intensity)” value (“phagocytic ability” for short) in series [3] was “notable improvements in phagocytic activity”.
Take `COc1cc2c(=O)c3c(O)c([C@@H]4O[C@H](CO)[C@@H](O)[C@H](O)[C@H]4O)c(O)cc3oc2cc1O` [7-O-methylmangiferin]: the “inhibitory effect on AChE (in words)” value in series [1] was “relatively low”. The IC50 in series [1] (read-out: AChE IC50) is 2.98 ± 0.245 µM. Besides, the Kd in series [2] (read-out: AChE Affinity KD) came to 16.9 µM.
On to `CC12CCC(CC1=O)C2(C)C` (stereo not shown) [Camphor], for which, in series [1], the AChE inhibition rate result is given as “exceeding 80%” and half-maximal inhibition (IC50) was put at 6.23 ± 0.567 µM. Besides, in series [2], binding was put at a Kd of 0.0251 µM. Moreover, the “phagocytic ability” value in series [3] is recorded as “effectively enhanced the phagocytic capability”.
Turning to `C#CCN(C)CCCOc1ccc(Cl)cc1Cl` [Clorgyline, reference compound], the “MAO-A inhibition rate (in words)” value in series [4] was “highest inhibition rate”.
Consider `C=CCc1cc(OC)c(OC)c(OC)c1` [Elemicin], for which the IC50 in series [4] worked out at 62.2 ± 1.08 µM. Besides, in series [4] (concentrations up to 50 μM), the “MAO-A inhibition rate (in words)” value is “comparable inhibition rate”. In addition, the Kd in series [5] worked out at 4.69 µM. In series [3], the “phagocytic ability” value is on record as “significantly enhanced phagocytic ability”.
As for `C=CCc1ccc(OC)cc1` [Estragole], the IC50 in series [4] worked out at 144 ± 7.43 µM. For the same molecule, the Kd in series [5] is 2.35 µM. The “phagocytic ability” value in series [3] is on record as “notable improvements in phagocytic activity”.
Taken in the same sequence, the figures for `C=CCc1ccc(OC)c(OC)c1` [Methyl eugenol] were 96.1 ± 9.87 µM, 5.83 µM and “weaker phagocytic ability”.
For the molecule `C/C=C/c1ccc(OC)c(OC)c1` [Methyl isoeugenol], in series [1], it took 9.68 ± 0.353 µM to reach half-maximal inhibition (IC50). Also, the affinity in series [2], expressed as Kd, was 0.0185 µM. Besides, the “phagocytic ability” value in series [3] is “weaker phagocytic ability”.
Take `O=c1c2cc(O)ccc2oc2cc(O)c([C@@H]3O[C@H](CO)[C@@H](O)[C@H](O)[C@H]3O[C@@H]3OC[C@](O)(CO)[C@H]3O)c(O)c12` [Sibiricaxanthone B]: the Kd in series [2] (read-out: AChE Affinity KD) worked out at 1.2 µM.
In the case of `CCCCCCCCCCCCCCCC(=O)OC` [methyl palmitate], the AChE inhibition rate entry in series [1] was “exceeding 80%”. In addition, the “phagocytic ability” value in series [3] was “effectively enhanced the phagocytic capability”.
For the molecule `CC1=CCC(O)(C(C)C)CC1` (stereo not shown) [terpinen-4-ol], the figures for the “phagocytic ability” value in series [3] and in series [3] (listed as terpiene-4-ol) were “effectively enhanced the phagocytic capability” and “weaker phagocytic ability”, respectively.
Turning to `C/C=C/c1cc(OC)c(OC)cc1OC` [α-asarone], the “phagocytic ability” value in series [3] is reported as “notable improvements in phagocytic activity”. The “detection in brain tissue” value in series [6] was “found in brain samples”.
With `C/C=C\c1cc(OC)c(OC)cc1OC` [β-asarone], the “phagocytic ability” value in series [3] is recorded as “notable improvements in phagocytic activity”. Further, the “detection in brain tissue” value in series [6] is “found in brain samples”.

Usually IC50 stands for the midpoint of a concentration-inhibition curve. Broadly, the Kd is the concentration at which binding is half-saturated.
